Consider 29 compounds from patent publication US20130280260A1, “OSTEOCLASTOGENESIS INHIBITOR CONTAINING ANTI-VDAC ANTIBODY” (TOKYO WOMEN'S MEDICAL UNIVERSITY, priority 2010, published 2013).

Experiment [1] deals with monoclonal antibody 20B12 (anti-VDAC1). As to the kind of experiment: Epitope analysis by ELISA using synthetic peptides covering VDAC1. The conditions noted are these: for OD450-595: 20B12 at 5 μg/mL, average of two wells; for reaction between peptide and antibody (ELISA): text summary of Tables 2, 3. It is filed as binding, mouse. The protocol:
In order to examine an epitope for the anti-VDCA monoclonal antibody (VDAC1(20B12), SANTA CRUZ Biotechnology, Inc., sc-58649, mouse monoclonal IgG2b, 100 μg/ml), an analysis was conducted by ELISA using synthetic peptides (Table 1). As the synthetic peptides, 28 types of peptides were prepared so as to cover the VDAC1 completely.
The synthetic peptides were fixed to plates by an avidin-biotin method as follows.
The synthetic peptides (325 nmol/peptide) were each dissolved in 250 μL of DMSO, and then diluted 6400-fold with Wash Buffer (PBS containing 0.05% Tween-20). After a streptavidin-coated plate was washed with Wash Buffer (350 μL, 3 times), 100 μL of the peptide thus diluted was added into the plate, which was left standing in cold storage overnight.
ELISA was performed using the plate to which the peptide was fixed in 7.1, and antibodies bound to the peptide were detected. The detection procedure was as follows. Two wells were used for one condition, and the average was taken. • (1) The liquid in wells was taken out. After washing with Wash Buffer (350 μL, three times), 200 μL of Blocking Buffer (SynBlock) was added to the wells, which were shaken at 37° C. for 1 hour. • (2) The liquid in the wells was taken out, and 50 μL of the monoclonal antibody 20B12 (diluted to 5 μg/mL with Blocking Buffer) was added to the wells, which were shaken at 37° C. for 1 hour. • (3) The liquid in the wells was taken out. After washing with Wash Buffer, 50 μL of HRP-labeled Goat anti Mouse IgG (Fc) (the original solution had been diluted 25000-fold with Wash Buffer) was added to the wells, which were shaken at 37° C. for 1 hour. • (4) The liquid in the wells was taken out, and the plate was washed. Then, 60 μL of a staining solution was added to the plate, which was incubated at 37° C. for 30 minutes. After 60 μL of a stop solution was added thereto to stop the color reaction, the absorbance at 450 nm (Reference 595 nm) was measured with a plate reader.
In general terms: An ELISA detects its analyte on a solid surface through an enzyme-linked reagent.

The test system of experiment [2] is human osteoclasts. As to the kind of experiment: Inhibition of osteoclast differentiation and osteoclastogenesis in human osteoclastogenesis culture system (monocytes with M-CSF and RANKL). It counts as cell-based. The conditions noted are these: 0.2 μg/mL or 2 μg/mL, in comparison with the control. The protocol:
• (1) Preparation of Monoclonal Antibodies against Cell Membrane Proteins of Osteoclasts • (i) Peripheral blood monocytes from five healthy subjects were cultured in flasks in the presence of M-CSF and RANKL for approximately 2 weeks and differentiated into osteoclasts. After trypsin and EDTA were added to the human osteoclasts, the resulting cells were cultured at 37° C. for 15 minutes, and then detached with a cell scraper and harvested. This operation was repeated to collect cell membranes of human mature osteoclasts. Membrane proteins were prepared from the human mature osteoclasts using a RIPA buffer. • (ii) Using the obtained membrane proteins as an antigen, mice were immunized. Spleen cells of the mice thus immunized were fused with myeloma cells, and four types of hybridomas were obtained. Screening was performed by ELISA using a plate on which the osteoclast membrane proteins were immobilized. The wells of the positive result were further examined for a reactivity to human osteoclasts and a nonspecific reactivity to monocytes. After cloning, 5D1/2B9/2H10 and 5D1/3F3/2C8 were obtained as final lines. • (iii) From these final lines, monoclonal antibodies were obtained. • (2) Purification of Proteins Bound to Antibody Column
• (1) Into the human osteoclastogenesis culture system obtained in step 1. […]

In the case of “LARGLKLTFD SSFSPNTGKK (LARGLKLTFDSSFSPNTGKK) [Peptide 10, synthetic peptide covering part of VDAC1]”, the OD450-595 is on record as 0.360 in experiment [1] (first time) and 0.351 in experiment [1] (second time).
In the case of “FDIAGPSIRG ALVLGYEGWL (FDIAGPSIRGALVLGYEGWL) [Peptide 14, synthetic peptide covering part of VDAC1]”, the figures for the OD450-595 in experiment [1] (first time) and in experiment [1] (second time) were 0.316 and 0.385, respectively.
In the case of “GKSARDVFTK GYGFGLIKLD (GKSARDVFTKGYGFGLIKLD) [Peptide 2, synthetic peptide covering part of VDAC1]”, the values for the OD450-595 in experiment [1] (first time) and in experiment [1] (second time) were 0.363 and 0.421, respectively.
In the case of “FTSSGSANTE TTKVTGSLET (FTSSGSANTETTKVTGSLET) [Peptide 5, synthetic peptide covering part of VDAC1]”, the OD450-595 in experiment [1] (first time) was 0.311; in experiment [1] (second time), 0.351.
Taken in the same sequence, the figures for “MAVPPTYADL GKSARDVFTK (MAVPPTYADLGKSARDVFTK) [Peptide 1, synthetic peptide covering part of VDAC1]” were 0.448 and 0.443.
Taken in the same sequence, the figures for “VGYKTDEFQL HTNVNDGTEF (VGYKTDEFQLHTNVNDGTEF) [Peptide 18, synthetic peptide covering part of VDAC1]” were 0.275 and 0.305.
On to `NCCCC(O)(P(=O)(O)O)P(=O)(O)O` [alendronate sodium hydrate], for which the “osteoclastogenesis (total area of osteoclasts)” value in experiment [2] is “significantly inhibited”.
As to “IAAKYQIDPD ACFSAKVNNS (IAAKYQIDPDACFSAKVNNS) [Peptide 23, synthetic peptide covering part of VDAC1]”, the results for the OD450-595 in experiment [1] (first time) and in experiment [1] (second time) were 0.276 and 0.357, respectively.
The matching figures for “TAGNSNTRFG IAAKYQIDPD (TAGNSNTRFGIAAKYQIDPD) [Peptide 22, synthetic peptide covering part of VDAC1]”: 0.318 and 0.319.
On to “ALLDGKNVNA GGHKLGLGLE (ALLDGKNVNAGGHKLGLGLE) [Peptide 27, synthetic peptide covering part of VDAC1]”, for which the values for the OD450-595 in experiment [1] (first time) and in experiment [1] (second time) were 0.290 and 0.371, respectively.
The matching figures for “ALVLGYEGWL AGYQMNFETA (ALVLGYEGWLAGYQMNFETA) [Peptide 15, synthetic peptide covering part of VDAC1]”: 0.337 and 0.373.
The matching figures for “LKTKSENGLE FTSSGSANTE (LKTKSENGLEFTSSGSANTE) [Peptide 4, synthetic peptide covering part of VDAC1]”: 0.312 and 0.423.
Turning to “GGSIYQKVNK KLETAVNLAW (GGSIYQKVNKKLETAVNLAW) [Peptide 20, synthetic peptide covering part of VDAC1]”, the figures for the OD450-595 in experiment [1] (first time) and in experiment [1] (second time) were 0.362 and 0.398, respectively.
Taken in the same sequence, the figures for “HTNVNDGTEF GGSIYQKVNK (HTNVNDGTEFGGSIYQKVNK) [Peptide 19, synthetic peptide covering part of VDAC1]” were 0.300 and 0.312.
Taken in the same sequence, the figures for “KSRVTQSNFA VGYKTDEFQL (KSRVTQSNFAVGYKTDEFQL) [Peptide 17, synthetic peptide covering part of VDAC1]” were 0.285 and 0.308.
As to “EHINLGCDMD FDIAGPSIRG (EHINLGCDMDFDIAGPSIRG) [Peptide 13, synthetic peptide covering part of VDAC1]”, the OD450-595 in experiment [1] (first time) was 0.369; in experiment [1] (second time), 0.322.
Taken in the same sequence, the figures for “AGYQMNFETA KSRVTQSNFA (AGYQMNFETAKSRVTQSNFA) [Peptide 16, synthetic peptide covering part of VDAC1]” were 0.388 and 0.444.
Taken in the same sequence, the figures for “GGHKLGLGLE FQA (GGHKLGLGLEFQA) [Peptide 28, synthetic peptide covering part of VDAC1]” were 0.418 and 0.455.
The matching figures for “LKPGIKLTLS ALLDGKNVNA (LKPGIKLTLSALLDGKNVNA) [Peptide 26, synthetic peptide covering part of VDAC1]”: 0.268 and 0.367.
Regarding “KLETAVNLAW TAGNSNTRFG (KLETAVNLAWTAGNSNTRFG) [Peptide 21, synthetic peptide covering part of VDAC1]”, the OD450-595 in experiment [1] (first time) came to 0.235; in experiment [1] (second time), 0.270.
Take “SSFSPNTGKK NAKIKTGYKR (SSFSPNTGKKNAKIKTGYKR) [Peptide 11, synthetic peptide covering part of VDAC1]”: the OD450-595 in experiment [1] (first time) is 0.319; in experiment [1] (second time) it was 0.361.
On to “SLIGLGYTQT LKPGIKLTLS (SLIGLGYTQTLKPGIKLTLS) [Peptide 25, synthetic peptide covering part of VDAC1]”, for which the OD450-595 came out at 0.590 in experiment [1] (first time) and 0.679 in experiment [1] (second time). Besides, the “reaction between peptide and antibody (ELISA)” value in experiment [1] is on record as “weak reaction”.
For “KYRWTEYGLT FTEKWNTDNT (KYRWTEYGLTFTEKWNTDNT) [Peptide 7, synthetic peptide covering part of VDAC1]”, the OD450-595 was 0.321 in experiment [1] (first time) and 0.371 in experiment [1] (second time).
Turning to “GYGFGLIKLD LKTKSENGLE (GYGFGLIKLDLKTKSENGLE) [Peptide 3, synthetic peptide covering part of VDAC1]”, the results for the OD450-595 in experiment [1] (first time) and in experiment [1] (second time) were 0.280 and 0.354, respectively.
Turning to “FTEKWNTDNT LGTEITVEDQ (FTEKWNTDNTLGTEITVEDQ) [Peptide 8, synthetic peptide covering part of VDAC1]”, the figures for the OD450-595 in experiment [1] (first time) and in experiment [1] (second time) were 0.341 and 0.411, respectively.
The matching figures for “LGTEITVEDQ LARGLKLTFD (LGTEITVEDQLARGLKLTFD) [Peptide 9, synthetic peptide covering part of VDAC1]”: 0.286 and 0.338.
On to “ACFSAKVNNS SLIGLGYTQT (ACFSAKVNNSSLIGLGYTQT) [Peptide 24, synthetic peptide covering part of VDAC1]”, for which the OD450-595 in experiment [1] (first time) came to 1.284; in experiment [1] (second time) it was 1.336. Besides, the “reaction between peptide and antibody (ELISA)” value in experiment [1] was “significant”.
For “NAKIKTGYKR EHINLGCDMD (NAKIKTGYKREHINLGCDMD) [Peptide 12, synthetic peptide covering part of VDAC1]”, the OD450-595 was 0.345 in experiment [1] (first time) and 0.375 in experiment [1] (second time).
Taken in the same sequence, the figures for “TTKVTGSLET KYRWTEYGLT (TTKVTGSLETKYRWTEYGLT) [Peptide 6, synthetic peptide covering part of VDAC1]” were 0.358 and 0.363.
